Source: patent US11426405B2, “Inhibition of JAK-STAT signaling inhibits formation of neutrophil extracellular traps (NETs)” (The Brigham and Women's Hospital, Inc., priority 2017, dated 2022)
Several values for one entry are separate records, joined by “and”; a condition that tells them apart may be missing. Identical values can stand only once.

B1: DNase: deoxyribonuclease (DNase; Pulmozyme, Genentech), disrupts NET structures (protein, UniProt P24855 23-282, looked up)
Deoxyribonuclease-1: LKIAAFNIQTFGETKMSNATLVSYIVQILSRYDIALVQEVRDSHLTAVGKLLDNLNQDAPDTYHYVVSEPLGRNSYKERYLFVYRPDQVSAVDSYYYDDGCEPCGNDTFNREPAIVRFFSRFTEVREFAIVPLHAAPGDAVAEIDALYDVYLDVQEKWGLEDVMLMGDFNAGCSYVRPSQWSSIRLWTSPTFQWLIPDSADTTATPTHCAYDRIVVAGMLLRGAVVPDSALPFNFQAAYGLSDQLAQAISDHYPVEVMLK

Key:
[1] = tested on: neutrophils from patients with MPNs; test: NET formation in neutrophils from MPN patients receiving a JAK inhibitor; type: cell-based, human; conditions: individual JAK inhibitor-treated MPN patients; 4 μM ionomycin stimulation; some patients also on ASA or Hydrea
Description: Whole blood was collected into ethylenediaminetetraacetic acid (EDTA)-coated tubes. Patients and controls were excluded if they had conditions that are known or suspected to affect NET formation such as active infection, active cancer (37), history of an autoimmune disease (38), treatment with immunosuppressive or anti-inflammatory drugs or history of diabetes (29). In addition, patients with recent history of infection, trauma or surgery (3 months before blood draw) were excluded. Therapy with acetylsalicylic acid (aspirin), hydroxyurea or anagrelide was allowed. […]
Neutrophil isolation and NET formation were carried out as previously described (39). […] Purity of cells was >95% as determined by Wright-Giemsa staining (FIG. 5B). For the screening NET assay, NET-bound neutrophil elastase was quantified using an available commercial kit according to manufacturer's instructions (Cayman chemical). […]
Fixed cells were processed as detailed above. Immunostaining, fluorescence microscopy and NET quantification procedures were similar for human and mouse specimens. […]
Images were acquired on an Axiovert 200M wide-field fluorescence microscope (Zeiss) coupled to an AxioCam MR3 monochromatic CCD camera (Zeiss) using a Zeiss Plan-Neofluar 20×/0.4 Con Ph2 objective lens with the Zeiss AxioVision software (version 4.6.3.0). […]

[2] = tested on: Jak2^WT and Jak2^V617F mice; test: Venous stenosis model: partial ligation of the inferior vena cava; type: in vivo, mouse; conditions: for Thrombus formation rate (clots/mice): DNase 50 μg i.p. and 10 μg i.v. after surgery
Procedure: Sections were allowed to come to room temperature, before rinsing in PBS with 0.1% Tween 20 (PBST). Sections were blocked for 1 hour at room temperature with 10% FBS in PBST in a humidified chamber. Sections were incubated in the same chamber overnight at 4° C. with the primary antibodies described above against Ly6G and H3^cit in 10% FBS in PBST. Slides were rinsed in PBST before incubating with the secondary antibody under the same conditions as used for the primary antibody (goat anti-rat Ig (IgG) (Alexa555, 1.5 μg/mL) or donkey anti-rabbit IgG (Alexa647, 1.5 μg/mL). After a further wash in PBST sections were stained with DAPI and mounted as described above. Sections were visualized using Axiolmager D1 (Carl Zeiss Microscopy) and images taken using Axiocam MRc Camera (Carl Zeiss Microscopy). Zen software 2.3 (version 13) was used to analyze images. For the final images used in the figures, Alexa647 was represented using green.
After bone marrow harvest, c-Kit positive marrow cells were obtained from VavCre/Jak2^V617F KI mice using CD117 Microbeads according to manufacturer's instructions (Miltenyi Bitotec).
DNase 1 (Pulmozyme, Genentech) was diluted in sterile saline and injected immediately after surgery (50 μg intraperitoneally and 10 μg intravenously via tail vein). […] Mice were assessed for thrombosis at 4 hours.

| Molecule | % NET formation [1] | Thrombosis rate at 2 hours post-IVC ligation ([2]; Jak2^V617F mice, ruxolitinib 90 mg/kg twice a day for 72 hours, vehicle 45%) [%] | Thrombosis rate at 4 hours post-IVC ligation ([2]; Jak2^V617F mice, ruxolitinib 90 mg/kg twice a day for 72 hours, vehicle 71%) [%] | Thrombus formation rate (clots/mice) ([2]; Jak2^V617F mice, vehicle 5/7, p=0.007) | Thrombus formation rate (clots/mice) ([2]; Jak2^WT mice, vehicle 5/8, p=0.06) |
| --- | --- | --- | --- | --- | --- |
| N#CC[C@H](C1CCCC1)n1cc(-c2ncnc3[nH]ccc23)cn1 [Ruxolitinib] | 1.5% and 5.9% and 5.4% and 5.5% | 0 | 21 |  |  |
| C[C@H](Nc1cc(-c2cnn(C)c2)cc(Nc2cnccn2)n1)c1ccc(F)cc1 [NS-018] | 6.9% |  |  |  |  |
| B1 |  |  |  | 0/8 | 1/7 |
